# Key:
# [1] = tested on: Mycobacterium tuberculosis; test: microbe, parasite or virus in culture; conditions: H37Rv
# Description: Antibacterial activity against Mycobacterium tuberculosis H37Rv assessed as inhibition of bacterial growth
# [2] = tested on: Mycobacterium tuberculosis; test: Antibacterial activity against Mycobacterium tuberculosis in acute Mtb infection mouse model assessed as reduction in log10 CFU at 200 mg/kg for 3 weeks; type: functional
# [3] = tested on: Mycobacterium tuberculosis; type: functional; conditions: H37Rv, time 6 day
# [4] = tested on: Mycobacterium tuberculosis; test: Bactericidal activity against Mycobacterium tuberculosis in macrophages; type: functional, Macrophage
# [5] = tested on: Mycobacterium tuberculosis; test: Antibacterial activity against Mycobacterium tuberculosis in acute Mtb infection BALB/c mouse model assessed as reduction in log10 CFU in lungs at 100 mg/kg for 3 weeks; type: functional
# HepG2 [6] = test: Cytotoxicity against human HepG2 cells treated for 72 hrs by MTT assay; type: functional
# [7] = Cytotoxicity against African green monkey Vero cells treated for 72 hrs by MTT assay; type: toxicity, cell-based; conditions: chlorocebus sabaeus
# [8] = tested on: Mycobacterium tuberculosis; test: Antibacterial activity against Mycobacterium tuberculosis in chronic Mtb infection BALB/c mouse model assessed as reduction in log10 CFU in lungs at 200 mg/kg for 4 weeks; type: functional
# [9] = target: T1, Voltage-gated inwardly rectifying potassium channel KCNH2 (Homo sapiens, UniProt Q12809)
# HepG2 [10] = test: Cytotoxicity against human HepG2 cells; type: functional
# [11] = Oral bioavailability in mouse; type: ADME, organism-based; conditions: in vivo
# [12] = tested on: Mycobacterium tuberculosis; type: functional; conditions: H37Rv
# [13] = tested on: Mycobacterium tuberculosis; type: functional, H37Rv; conditions: dose 100 mg/kg
# [14] = Inhibition of bacterial InhA expressed in Escherichia coli BL21 (DE3) incubated for 1 hr by […]; design: species or system Bacteria
# [15] = target: T1, Voltage-gated inwardly rectifying potassium channel KCNH2; test: Inhibition of hERG by Qpatch assay; type: toxicity
# [16] = Aqueous solubility of compound in PBS at pH 7.4 incubated for 1 hr; type: physicochemical
# [17] = Half life in mouse; type: ADME, organism-based; conditions: in vivo
# [18] = tested on: Mycobacterium tuberculosis; type: functional, H37Rv; conditions: dose 300 mg/kg; time 8 day
# [19] = tested on: Mycobacterium tuberculosis; type: functional; conditions: H37Rv, time 6 day; remark: listed apart in the source
# [20] = tested on: Mycobacterium tuberculosis; type: functional, H37Rv; conditions: dose 50 mg/kg; route po; time 4 weeks
# [21] = Solubility of the compound; type: physicochemical
# [22] = Selectivity index, ratio of CC50 for human HepG2 cells to MIC99 for Mycobacterium tuberculosis H37Rv; type: toxicity
# [23] = tested on: Mycobacterium tuberculosis; type: functional; conditions: H37Rv, 168 h, time 7 day
# [24] = tested on: Mycobacterium tuberculosis; test: Bactericidal activity against Mycobacterium tuberculosis H37Rv in chronic Mtb infection BALB/c mouse model assessed as log10 CFU kill at 20 mg/kg, po qd via gavage measured after 4 weeks; type: functional
# [25] = tested on: Mycobacterium tuberculosis; test: Antibacterial activity against Mycobacterium tuberculosis in chronic Mtb infection mouse model assessed as reduction in log10 CFU at 100 mg/kg bid; type: functional
# [26] = tested on: Mycobacterium tuberculosis; type: functional; conditions: dose 100 mg/kg; route po; time 4 weeks
# [27] = tested on: Mycobacterium tuberculosis; test: Antibacterial activity against Mycobacterium tuberculosis assessed as inhibition of bacterial growth; type: functional
# [28] = tested on: Mycobacterium tuberculosis; type: functional; conditions: H37Rv; remark: listed apart in the source
# [29] = tested on: Mycobacterium tuberculosis; test: Antibacterial activity against Mycobacterium tuberculosis Erdman in acute Mtb infection BALB/c mouse model assessed as reduction in log10 CFU in lungs at 50 mg/kg, po via gavage for 8 weeks; type: functional
# [30] = tested on: Mycobacterium tuberculosis; test: Antibacterial activity against Mycobacterium tuberculosis Kurono in chronic Mtb infection Slc:ICR mouse model assessed as reduction in log10 CFU in lungs at 2.5 mg/kg, po qd for 4 weeks; type: functional
# [31] = tested on: Mycobacterium tuberculosis; test: Antibacterial activity against Mycobacterium tuberculosis in chronic Mtb infection Wistar rat model assessed as reduction in log10 CFU in lungs at 100 mg/kg, po; type: functional
# [32] = tested on: Mycobacterium tuberculosis; type: functional; conditions: H37Rv, 336 h, time 14 day
# T1 sequence (Q12809 whole entry): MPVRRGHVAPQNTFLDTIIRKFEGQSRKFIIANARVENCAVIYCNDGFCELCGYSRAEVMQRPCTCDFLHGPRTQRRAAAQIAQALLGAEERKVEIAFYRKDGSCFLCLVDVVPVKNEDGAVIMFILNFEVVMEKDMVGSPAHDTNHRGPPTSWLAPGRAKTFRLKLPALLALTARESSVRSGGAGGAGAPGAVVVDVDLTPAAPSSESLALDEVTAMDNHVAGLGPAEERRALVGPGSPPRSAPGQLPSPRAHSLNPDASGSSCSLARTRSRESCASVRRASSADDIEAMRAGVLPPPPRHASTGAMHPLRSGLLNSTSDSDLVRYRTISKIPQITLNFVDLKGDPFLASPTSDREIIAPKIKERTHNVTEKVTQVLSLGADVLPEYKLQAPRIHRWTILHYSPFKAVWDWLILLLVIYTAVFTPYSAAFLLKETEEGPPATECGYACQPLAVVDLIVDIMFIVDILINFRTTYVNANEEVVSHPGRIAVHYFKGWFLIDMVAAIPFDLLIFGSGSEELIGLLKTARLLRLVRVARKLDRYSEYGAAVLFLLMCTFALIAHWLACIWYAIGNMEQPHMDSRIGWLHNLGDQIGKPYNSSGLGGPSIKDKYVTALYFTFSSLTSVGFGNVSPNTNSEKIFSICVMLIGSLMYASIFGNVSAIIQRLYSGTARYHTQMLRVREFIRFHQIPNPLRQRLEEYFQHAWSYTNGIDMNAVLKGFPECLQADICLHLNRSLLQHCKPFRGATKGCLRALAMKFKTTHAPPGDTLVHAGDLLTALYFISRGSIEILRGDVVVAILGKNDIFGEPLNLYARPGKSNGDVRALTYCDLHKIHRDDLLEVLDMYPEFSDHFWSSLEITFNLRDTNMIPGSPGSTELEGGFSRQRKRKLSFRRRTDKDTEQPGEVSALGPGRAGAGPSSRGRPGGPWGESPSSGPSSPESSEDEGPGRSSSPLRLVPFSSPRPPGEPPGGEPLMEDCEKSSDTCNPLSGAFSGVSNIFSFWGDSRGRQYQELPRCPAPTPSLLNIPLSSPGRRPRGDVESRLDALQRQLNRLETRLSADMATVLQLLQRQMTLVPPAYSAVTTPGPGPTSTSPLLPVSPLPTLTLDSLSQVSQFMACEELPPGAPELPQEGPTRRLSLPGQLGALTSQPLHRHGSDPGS
compound,measurement,setting,value
CC(Nc1nc(N2CCCCC2)nc2ccccc12)c1ccccc1 (stereo not given),MIC80,[1],25 µM
Cc1cc(Nc2ncc(Cl)c(Nc3ccccc3S(=O)(=O)C(C)C)n2)c(OC(C)C)cc1C1CCNCC1 [CERITINIB],MIC90,[1],9 µM
C[C@@H](O)[C@H]1C(=O)N2C(C(=O)O)=C([C@H]3CCCO3)S[C@H]12 [FAROPENEM],Activity,[2],2.4 log10CFU
same,MIC90,[1],1.8 µM
CNc1nc(SC)nc2ccccc12,MIC,[3],0.13 µM
O=S(=O)(NCCO)c1ccc(-c2nnn(Cc3ccc(F)cn3)n2)cc1,MIC,[1],0.07 µM
Cc1cccc(OC2CCN(Cc3cc(=O)[nH]c(=O)[nH]3)CC2)c1C [GSK-2556286],Activity,[4],<0.1 µM
FC(F)(F)c1ccc(Oc2ccc(Nc3ncnc4ccccc34)cc2)cc1,MIC50,[1],25 µM
N=C(N)NC(=O)c1nc(-c2cc3ccccc3o2)c(N)nc1N,MIC,[1],4 µM
CCOC(=O)NC(=O)c1ccsc1NC(=O)c1nc2cnccc2s1,Activity,[5],2.3 log10CFU
same,CC50,HepG2 [6],> 100 µM
same,CC50 at 72 h,[7],> 100 µM
same,Activity,[8],>1.7 log10CFU
same,IC50,[9],> 30 µM
same,MIC90,[1],0.089 µM
Cc1csc([C@](C)(O)c2nnc(Nc3ccn(Cc4csc(C)n4)n3)s2)n1,CC50,HepG2 [10],> 50 µM
same,bioavailability,[11],92%
same,MIC90,[12],0.2 µM
same,Activity,[13],3 log10CFU
same,IC50,[14],0.007 µM
same,IC50,[15],> 50 µM
same,solubility at 1 h,[16],413 µM
same,half-life,[17],56 min
same,Activity,[18],3 log10CFU
O=c1c(NCc2ccccn2)c(-c2ccc(C(F)(F)F)cc2)c1=O,MIC80,[1],6.2 µM
c1cc2c(s1)CCOC21CCN(Cc2ccc3c(c2)OCCO3)CC1,MIC90,[1],0.3 µM
O=c1nc(N2CCN(S(=O)(=O)C3CC3)CC2)sc2c([N+](=O)[O-])cc(C(F)(F)F)cc12,MIC99,[19],0.0065 µM
same,Activity,[20],0.5 log10CFU
same,solubility,[21],19 µM
same,CC50,HepG2 [10],17 µM
same,selectivity ratio,[22],2620
O=C(C1CCN(c2nnc(-n3cccc3)s2)CC1)N1CCC(Cc2ccccc2)CC1,MIC90,[1],4 µM
COc1ncccc1Nc1cc2nc3ccccc3n(-c3ccc(OC(F)(F)F)cc3)c-2c/c1=N\C1CCC(OC)CC1 (stereo not given),MIC90,[23],< 0.008 µM
same,Activity,[24],1.7 log10CFU
CCNC(=O)Nc1nc2cc(-c3cnc(C(C)(C)OP(=O)(O)O)nc3)c(F)c([C@H]3CCCO3)c2[nH]1,Activity,[25],2.5 log10CFU
CC1(C)CCC(NC(=O)c2cc3c(Cl)cc(Cl)cc3[nH]2)CC1,Activity,[26],3.1 log10CFU
same,MIC90,[1],0.02 µM
N[C@@H]1CONC1=O [CYCLOSERINE],MIC,[1],157 µM
CCNC(=O)Nc1nc2cc(-c3cnc(C(C)(C)O)nc3)c(F)c([C@H]3CCCO3)c2[nH]1,MIC90,[27],0.07 µM
CCc1nc2ccc(Cl)cn2c1C(=O)NCc1ccc(N2CCC(c3ccc(OC(F)(F)F)cc3)CC2)cc1 [TELACEBEC],MIC50,[28],0.0027 µM
same,Activity,[29],0.6 log10CFU
same,MIC90,[1],0.011 µM
O=C1CCc2c(OC[C@]3(O)CCN(c4c(F)cc(Cl)cc4F)C[C@H]3O)ccc(F)c2N1 [QUABODEPISTAT],Activity,[30],>1 log10CFU
COc1ncnc(Cn2cc(C(=O)NCCO)c3ncc(C)cc32)c1C [TBA-7371],Activity,[31],1 log10CFU
O=C(Nc1ccc(N2CCSCC2)c(F)c1)c1ccc2no[n+]([O-])c2c1,MIC90,[32],0.7 µM
